Results on eight molecules are retold here after patent publication EP0353047B1, “Use of imidazopyrazole derivatives as analgesics and anti-inflammatory agents” (Sankyo Company Limited, priority 1988, dated 1990).

Each structure is given as a SMILES string. Marks after values point to notes of the source that are not given here.

The first data set relates to rats of the Wistar strain. The data set is described as follows: Analgesic effect (Randall-Selitto method). It counts as in vivo. The settings on record: Rattus norvegicus; fraction of animals; dose 50 mg/kg, oral. As for the experimental part:
These tests were conducted according to the Randall-Selitto method using rats of the Wistar strain [L.O. Randall, J.J. Selitto: Arch. int. Pharmacodyn. 111, 409 (1957)]. Except where otherwise noted, the dose of test compound was 50 mg/kg.
Consider `COc1ccc(-c2cc3[nH]ccn3n2)cc1` [Example 5], for which the responders at 50 mg/kg is 100%.

Molecule `FC(F)(F)c1ccc(-c2cc3[nH]ccn3n2)cc1` [Example 1, 6-(4-Trifluoromethylphenyl)-1H-imidazo[1,2-b]pyrazole] showed a responders at 50 mg/kg of 80%.

Take `Clc1ccc(-c2cc3[nH]ccn3n2)cc1` [Example 8, 6-(p-chlorophenyl)-1H-imidazo[1,2-b]pyrazole]: the responders at 50 mg/kg was 100%.

Molecule `FC(F)(F)c1cccc(-c2cc3[nH]ccn3n2)c1` [Example 2] had a responders at 50 mg/kg of 60%.

Staying with this data set, now noted: fraction of animals; dose 25 mg/kg (*), oral.
Turning to `c1coc(-c2cc3[nH]ccn3n2)c1` [Example 22, 6-(2-Furyl)-1H-imidazo[1,2-b]pyrazole], the “Analgesic effect (Randall-Selitto)” value is listed as 4/5*.

Turning to `CCc1c(-c2cccs2)nn2cc[nH]c12` [Example 24], the “Analgesic effect (Randall-Selitto)” value is 4/5*.

The target of the next data set is T1, 5-lipoxygenase (Cavia porcellus, UniProt A0A286X958).
T1 construct: The supernatant was isolated as an enzyme fraction; from tissue; host or cells: Casein-elicited peritoneal polymorphonuclear leukocytes of male Hartley guinea pigs; sonicated, 10,000 G supernatant
T1 sequence (A0A286X958 1-674): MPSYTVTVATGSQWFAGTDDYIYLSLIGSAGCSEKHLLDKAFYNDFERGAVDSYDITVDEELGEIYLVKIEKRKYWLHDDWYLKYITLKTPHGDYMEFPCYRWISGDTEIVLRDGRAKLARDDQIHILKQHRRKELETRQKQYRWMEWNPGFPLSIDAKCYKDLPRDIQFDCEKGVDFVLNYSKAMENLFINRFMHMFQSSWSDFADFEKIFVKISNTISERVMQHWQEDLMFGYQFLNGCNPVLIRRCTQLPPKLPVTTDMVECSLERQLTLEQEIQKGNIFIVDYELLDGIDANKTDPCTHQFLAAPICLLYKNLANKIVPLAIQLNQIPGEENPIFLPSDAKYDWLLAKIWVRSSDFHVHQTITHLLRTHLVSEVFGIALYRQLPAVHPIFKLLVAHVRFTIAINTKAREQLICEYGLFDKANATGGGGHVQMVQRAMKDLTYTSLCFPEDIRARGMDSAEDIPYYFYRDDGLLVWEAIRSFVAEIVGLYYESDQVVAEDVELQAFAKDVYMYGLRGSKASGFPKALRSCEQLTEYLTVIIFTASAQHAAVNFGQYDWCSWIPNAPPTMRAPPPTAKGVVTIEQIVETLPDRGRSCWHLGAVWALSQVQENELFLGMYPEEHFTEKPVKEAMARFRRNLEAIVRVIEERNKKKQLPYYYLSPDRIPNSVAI
The data set is described as follows: 5-Lipoxygenase inhibitory activity (5-HITE production by polymorphonuclear leukocyte enzyme fraction). It counts as biochemical, male guinea pigs of the Hartley strain. The settings on record: inhibition of production of 5-HITE from [14C]-arachidonic acid; 30°C, 30 minutes, pH 7.4; read-out: IC₅₀ (converted). As for the experimental part: The preparation of polymorphonuclear leukocytes was carried out by the method of Sbarra et al [Sbarra A.J. and Karnovsky, M. L.; J. Biol. Chem., 234, 1355 - 1362 (1959)]. Specifically, a 2% w/v aqueous casein solution was administered intraperitoneally to male guinea pigs of the Hartley strain, each weighing about 400 - 500 g. The polymorphonuclear leukocytes were harvested from the peritoneal exudate 14 - 16 hours after the administration. The preparation of enzyme was carried out by the method of Yoshimoto et al [Yoshimoto, T., Furakawa, M., Yamamoto, S., Horie, T. and Watanabe-Kohno, S.; Biochem. Biophys. Commun., 116, 612 - 618 (1983)]. The harvested polymorphonuclear leukocytes were suspended in a 50 mM phosphate buffer solution (pH = 7.4) containing 10% ethylene glycol and 1mM EDTA at a density of 1 x 10⁸ cells/ml. The suspension was subjected to ultrasound twice, each time for 30 seconds at 20 KHz, and was then centrifuged for 10 minutes at 10,000 G. The supernatant was isolated as an enzyme fraction, which was stored at -80°C. The enzyme assay was carried out by a modification of Ochi's method [Ochi, K., Yoshimoto, T., Yamamoto., S., Taniguchi, K. and Miyamoto, T.; J. Biol. Chem., 258, 5754-5758 (1983)]. Specifically, 2 mM CaCℓ₂, 1 mM glutathione, 2 mM ATP (adenosine-5′-triphosphate), 16 µM [¹⁴C]-arachidonic acid (0.16 µCi, dissolved in 5 µl ethanol), the test compound (dissolved in 4 µl DMSO) and the enzyme solution (containing 200 µg of protein) were made up to a final volume of 200 µl in a 50 mM potassium phosphate buffer solution (pH = 7.4). The test compound and the enzyme were preincubated at 30°C for 5 minutes. After the addition of the arachidonic acid, the mixture was incubated at 30°C for 30 minutes. The reaction was stopped by the addition of 50µl of 0.2N citric acid. The reaction mixture was then extracted with ethyl acetate and the extract was concentrated under a stream of nitrogen. The concentrate was subjected to thin layer chromatography and eluted with a 85 : 15 : 0.1 by volume mixture of diethyl ether, petroleum ether and acetic acid. The 5-hydroxyicosatetraenoic acid (5-HITE) fraction of the plate was identified with a radioactive scanner and the radioactivity was measured. The IC₅₀ (µg/ml) was calculated against the inhibitory rate of the production of 5-HITE of a control group, to which a test compound was not administered.
Take `CCCCc1c(-c2ccccc2)nn2cc[nH]c12` [Example 12]: the IC50 was 3.93 µM.

A further data set relates to gastric acid secretions. The experiment in a line: Anti-ulcer activity: suppression of gastric acid secretions (Shay method). Format: in vivo, rats. As to conditions: gastric acid secretion; dosage 10 mg/kg i.d.
As to `CN/C(=N/CCSCc1nc[nH]c1C)NC#N` [Cimetidine, reference compound], the “Suppression rate (%)” value amounted to 62%.

Staying with this data set, now noted: gastric acid secretion; dosage 30 mg/kg i.d.
On to `CN/C(=N/CCSCc1nc[nH]c1C)NC#N` [Cimetidine, reference compound], for which the “Suppression rate (%)” value is on record as 58%.

In a further data set the test system is inflammation induced by anti-rat IgG rabbit serum. The experiment in a line: Anti-inflammatory effect (reversed passive alusas reaction, Evans blue extraction). Format: in vivo, rats of the Sprague-Dawley strain. The settings on record: 2.5 h, percent inhibition of inflammation relative to control group, dose 50 mg/kg, oral. The protocol:
The test animals were rats of the Sprague-Dawley strain, which had first been fasted for 17 hours. The hair was trimmed from their dorsal portions by means of a hair clipper, and 0.1 ml/site of anti-rat IgG rabbit serum was injected intracutaneously at the trimmed part to induce inflammation. Except in the case of the control animals, to which no anti-inflammatory drug was administered, the test drug was administered orally immediately before inflammation was induced. Except where otherwise noted, the dose of test compound was 50 mg/kg. Two hours after induction of inflammation, a 1% by volume solution of Evans blue in physiological saline was injected intravenously into the tail of each rat in an amount of 1 ml per each animal. 30 minutes after this injection, the rats were sacrificed with carbon dioxide and their skins were peeled off to extract the chromogen of the blue spots. In more detail, the skins were cut into small pieces and extracted with 5 ml of an extraction solvent at room temperature for 2 days. The supernatant obtained by centrifugation was then measured spectrophotometrically at an absorption wavelength of 605 nm. The percent inhibition of inflammation of the group of rats to which the test drug was administered was determined relative to the control group.
By inhibition in vivo is commonly meant the share of the control response that was lost under treatment. Low readings indicate a response near the control, high ones a response far below the control. `COc1ccc(-c2cc3[nH]ccn3n2)cc1` [Example 5] registered an inhibition in vivo at 50 mg/kg of 67.6%.

Consider `Clc1ccc(-c2cc3[nH]ccn3n2)cc1` [Example 8, 6-(p-chlorophenyl)-1H-imidazo[1,2-b]pyrazole], for which testing at 50 mg/kg gave an inhibition in vivo of 74.7%.

As to `FC(F)(F)c1cccc(-c2cc3[nH]ccn3n2)c1` [Example 2], 50 mg/kg produced 69.6% inhibition in vivo.

A further data set has as its system male mice of the ddy strain. The experiment in a line: Acute toxicity. The settings on record: fraction of animals; dose 300 mg/kg oral in 0.5% carboxymethyl cellulose, observed for 7 days. Format: in vivo. As for the experimental part: The test animals employed were male mice of the ddy strain (age: 5 weeks). […] The dose of test compound was 300 mg/kg.
In the case of `COc1ccc(-c2cc3[nH]ccn3n2)cc1` [Example 5], the “Toxicity (mouse)” value is 0/3.

On to `FC(F)(F)c1ccc(-c2cc3[nH]ccn3n2)cc1` [Example 1, 6-(4-Trifluoromethylphenyl)-1H-imidazo[1,2-b]pyrazole], for which the “Toxicity (mouse)” value is 0/3.

With `Clc1ccc(-c2cc3[nH]ccn3n2)cc1` [Example 8, 6-(p-chlorophenyl)-1H-imidazo[1,2-b]pyrazole], the “Toxicity (mouse)” value is given as 0/3.

In the case of `c1coc(-c2cc3[nH]ccn3n2)c1` [Example 22, 6-(2-Furyl)-1H-imidazo[1,2-b]pyrazole], the “Toxicity (mouse)” value was 0/3.

`CCc1c(-c2cccs2)nn2cc[nH]c12` [Example 24]: the “Toxicity (mouse)” value is listed as 0/3.

As to `FC(F)(F)c1cccc(-c2cc3[nH]ccn3n2)c1` [Example 2], the “Toxicity (mouse)” value is listed as 0/3.

In another data set the test system is carrageenan-induced edema. The experiment in a line: Anti-inflammatory effect (carrageenan edema method). Format: in vivo, rats of the Wistar strain. As to conditions: Rattus norvegicus; percent inhibition of carrageenan-induced edema; dose 50 mg/kg, oral. The protocol:
The percent inhibition against carrageenan-induced edema in rats of the Wistar strain, using the conventional method of C.A. Winter, E.A. Risley, G.W. Nuss [J. Pharmacol., Exp. Therap., 141, 369 (1963)]. Except where otherwise noted, the dose of test compound was 50 mg/kg.
`COc1ccc(-c2cc3[nH]ccn3n2)cc1` [Example 5] returned an inhibition in vivo at 50 mg/kg of 53.7%.

Regarding `FC(F)(F)c1ccc(-c2cc3[nH]ccn3n2)cc1` [Example 1, 6-(4-Trifluoromethylphenyl)-1H-imidazo[1,2-b]pyrazole], the inhibition in vivo at 50 mg/kg amounted to 44.2%.

`Clc1ccc(-c2cc3[nH]ccn3n2)cc1` [Example 8, 6-(p-chlorophenyl)-1H-imidazo[1,2-b]pyrazole] returned an inhibition in vivo at 50 mg/kg of 76.5%.

The molecule `c1coc(-c2cc3[nH]ccn3n2)c1` [Example 22, 6-(2-Furyl)-1H-imidazo[1,2-b]pyrazole] came in with an inhibition in vivo at 50 mg/kg of 76.3%.

Consider `CCc1c(-c2cccs2)nn2cc[nH]c12` [Example 24], for which at 50 mg/kg the inhibition in vivo was 71.9%.

Turning to `FC(F)(F)c1cccc(-c2cc3[nH]ccn3n2)c1` [Example 2], the inhibition in vivo at 50 mg/kg was determined as 54%.
